Source: patent US7897621B2, “2-trifluoromethylnicotinamide derivatives as HDL-cholesterol raising agents” (Hoffmann-La Roche Inc., priority 2008, dated 2011)

What was measured:
[1] = test system: THP-1 cells; assay: Cholesterol efflux assay; format: cell-based; conditions: Homo sapiens; THP-1 cells differentiated to macrophages, [3H]cholesterol loaded, efflux induced by 10 μg/ml Apolipoprotein AI, 6 hrs; percent stimulation over DMSO
Procedure: The ability of compounds of the invention to stimulate cholesterol efflux is determined in replicate cultures of THP-1 cells in 96-well microplates. Cells are plated at an initial density of 150,000 cells/well and differentiated to macrophages with the addition of PMA (100 ng/ml) for 72 hrs in 10% fetal bovine serum, 3 μI/L of b-mercaptoethanol, RPMI-1640 medium. Cells are washed once with RPMI-1640 and loaded with RPMI-1640 medium containing 2% FCS, 50 μg/ml acetylated LDL, and 10 μCi/ml [^3H]cholesterol for 48 hours at 37° C. After loading the cells are washed once with RPMI-1640 and incubated with the compound of interest from DMSO solutions for an additional 24 hrs in RPMI-1640 medium containing 1 mg/ml fatty acid free-bovine serum albumin (BSA). Upon incubation cells are washed once, and cholesterol efflux is induced by the addition of 10 μg/ml Apolipoprotein Al in RPMI-1640 containing 1 mg/ml BSA and in the presence of the compound for an additional 6 hrs. Following incubation radioactivity is determined in the supernatants and cholesterol efflux is expressed as the percent stimulation over replicate cultures treated only with DMSO. Sigmoidal curves were fitted using the XLfit3 program (ID Business Solutions Ltd. UK) and EC50 values were determined.

[2] = target: cannabinoid CB1 receptor (Homo sapiens, UniProt P21554); assay: CB1-receptor binding assay; conditions: determined as described in WO 2006/106054, page 36
Procedure: The affinity of the compounds of formula I of the present invention towards cannabinoid CB1 receptors was determined as described in WO 2006/106054, page 36.

Chain of cannabinoid CB1 receptor (P21554 whole entry): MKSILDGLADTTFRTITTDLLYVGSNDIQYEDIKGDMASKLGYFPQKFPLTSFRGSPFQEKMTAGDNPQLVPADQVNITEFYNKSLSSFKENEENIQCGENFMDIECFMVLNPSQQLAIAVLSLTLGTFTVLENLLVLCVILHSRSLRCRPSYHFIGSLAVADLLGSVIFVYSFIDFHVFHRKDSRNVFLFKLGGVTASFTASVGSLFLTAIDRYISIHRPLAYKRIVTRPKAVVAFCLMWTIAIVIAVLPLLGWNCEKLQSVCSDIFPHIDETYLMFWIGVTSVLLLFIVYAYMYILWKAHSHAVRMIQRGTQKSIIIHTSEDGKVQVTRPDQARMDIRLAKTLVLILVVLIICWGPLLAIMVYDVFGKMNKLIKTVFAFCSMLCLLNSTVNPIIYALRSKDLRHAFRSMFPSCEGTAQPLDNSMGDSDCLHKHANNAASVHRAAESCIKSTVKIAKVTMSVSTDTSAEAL

EC50 [1] [nM] | IC50 [2] [nM] | SMILES
390 | 5600 | O=C(N[C@@H]1CCCC[C@H]1O)c1cc(-c2ccc(Cl)cc2)c(OCC(F)(F)F)nc1C(F)(F)F [Example 4, 5-(4-chloro-phenyl)-N-((1R,2R)-2-hydroxy-cyclohexyl)-6-(2,2,2-trifluoro-ethoxy)-2-trifluoromethyl-nicotinamide]
1200 | > 10000 | O=C(N[C@@H]1CCCC[C@@H]1O)c1cc(-c2ccc(Cl)cc2)c(OCC(F)(F)F)nc1C(F)(F)F [Example 4B, 5-(4-chloro-phenyl)-N-((1R,2S)-2-hydroxy-cyclohexyl)-6-(2,2,2-trifluoro-ethoxy)-2-trifluoromethyl-nicotinamide]
2500 | > 10000 | O=C(N[C@H]1CCCC[C@H]1O)c1cc(-c2ccc(Cl)cc2)c(OCC(F)(F)F)nc1C(F)(F)F [Example 4C, 5-(4-chloro-phenyl)-N-((1S,2R)-2-hydroxy-cyclohexyl)-6-(2,2,2-trifluoro-ethoxy)-2-trifluoromethyl-nicotinamide]
890 | ~10000 | CC(C)CC(CO)NC(=O)c1cc(-c2ccc(NS(C)(=O)=O)cc2)c(OCc2ccccn2)nc1C(F)(F)F (stereo not shown) [Example 5, N-(1-hydroxymethyl-3-methyl-butyl)-5-(4-methanesulfonylamino-phenyl)-6-(pyridin-2-ylmethoxy)-2-trifluoromethyl-nicotinamide]
560 | > 10000 | CS(=O)(=O)Nc1ccc(-c2cc(C(=O)N[C@@H]3CCCC[C@H]3O)c(C(F)(F)F)nc2OCC(F)(F)F)cc1 [Example 6, N-((1R,2R)-2-hydroxy-cyclohexyl)-5-(4-methanesulfonylamino-phenyl)-6-(2,2,2-trifluoro-ethoxy)-2-trifluoromethyl-nicotinamide]
640 | > 10000 | O=C(N[C@@H]1CCCC[C@H]1O)c1cc(-c2ccc(Cl)c(Cl)c2)c(OCc2ccccn2)nc1C(F)(F)F [Example 7, 5-(3,4-dichloro-phenyl)-N-((1R,2R)-2-hydroxy-cyclohexyl)-6-(pyridin-2-ylmethoxy)-2-trifluoromethyl-nicotinamide]

The remaining lines, values behind:

SMILES | EC50 [1] [nM] | IC50 [2] [nM]
CC(O)(CNC(=O)c1cc(-c2ccc(Cl)cc2)c(OCC(F)(F)F)nc1C(F)(F)F)C1CC1 (stereo not shown) [Example 1, 5-(4-chloro-phenyl)-N-(2-cyclopropyl-2-hydroxy-propyl)-6-(2,2,2-trifluoro-ethoxy)-2-trifluoromethyl-nicotinamide] | 450 | ~10000
CC(O)(CNC(=O)c1cc(-c2ccc(Cl)c(Cl)c2)c(OCC(F)(F)F)nc1C(F)(F)F)C1CC1 (stereo not shown) [Example 2, N-(2-cyclopropyl-2-hydroxy-propyl)-5-(3,4-dichloro-phenyl)-6-(2,2,2-trifluoro-ethoxy)-2-trifluoromethyl-nicotinamide] | 1070 | > 10000
C[C@](O)(CNC(=O)c1cc(-c2ccc(Cl)c(Cl)c2)c(OCC(F)(F)F)nc1C(F)(F)F)C1CC1 [Example 2A, N-((R)-2-cyclopropyl-2-hydroxy-propyl)-5-(3,4-dichloro-phenyl)-6-(2,2,2-trifluoro-ethoxy)-2-trifluoromethyl-nicotinamide] | 1630 | > 10000
C[C@@](O)(CNC(=O)c1cc(-c2ccc(Cl)c(Cl)c2)c(OCC(F)(F)F)nc1C(F)(F)F)C1CC1 [Example 2B, N-((S)-2-cyclopropyl-2-hydroxy-propyl)-5-(3,4-dichloro-phenyl)-6-(2,2,2-trifluoro-ethoxy)-2-trifluoromethyl-nicotinamide] | 1400 | > 10000
CC(O)(CNC(=O)c1cc(-c2cccc(Cl)c2)c(OCC(F)(F)F)nc1C(F)(F)F)C1CC1 (stereo not shown) [Example 3, 5-(3-chloro-phenyl)-N-(2-cyclopropyl-2-hydroxy-propyl)-6-(2,2,2-trifluoro-ethoxy)-2-trifluoromethyl-nicotinamide] | 480 | > 10000
